In patent US20240382518A1, “PHARMACEUTICAL COMPOSITION AND HEALTH FUNCTIONAL FOOD FOR PREVENTION OR TREATMENT OF OSTEOARTHRITIS” (SEOUL NATIONAL UNIVERSITY R&DB FOUNDATION, priority 2021, published 2024):

How the values were obtained:
[1] = system: SEPHS1 knockout mouse-derived chondrocytes; experiment: senescence-associated β-galactosidase (SA-β-gal) activity in SEPHS1 knockout mouse-derived chondrocytes; format: cell-based; settings: after NAC treatment
Experimental: (§1) For primary culture of mouse articular chondrocytes, cells derived from femoral condyle and tibial plateaus of 5-day-old ICR mice were isolated. Chondrocytes were cultured in DMEM medium containing 10% FBS (Gibco), 100 units/mL of penicillin, and 100 μg/mL of streptomycin. After 2 days, cells were treated according to the purpose of each experiment. The cultured cells were maintained at 37° C. under 5% CO2 and 3% O2 conditions. In addition, DNA damage and senescence-associated β-galactosidase (SA-β-gal) activity were measured to determine the relationship between SEPHS1 deficiency and cellular senescence. […] In order to determine whether the DNA damage and the increase in SA-β-gal activity caused by SEPHS1 inhibition were caused by the accumulation of ROS, SEPHS1 knockout mouse-derived chondrocytes were additionally treated with N-acetylcysteine (NAC), followed by repeatedly performing the same experiment. As a result, it was confirmed that DNA damage caused by SEPHS1 inhibition and the increase in SA-β-gal activity were reduced after NAC treatment (FIGS. 3P to 3S).

SEPHS1-iCKO mice = experiment: post-traumatic osteoarthritis (DMM surgery) in SEPHS1-iCKO mice with NAC or selenate in drinking water; format: in vivo, mouse; settings: for osteoarthritis phenotype of SEPHS1-iCKO mice: drinking water with NAC 1 mg/mL or sodium selenate 1 ppm, from 5 days prior to DMM
Experimental: Selenate supplementation or NAC treatment was performed by supplying mice with drinking water in which sodium selenate (1 ppm) or NAC (1 mg/mL) was dissolved. Further, to Sephs1-iCKO mice, NAC, selenate or vehicle was supplemented 5 days prior to DMM surgery.
Posttraumatic osteoarthritis (OA) was induced by executing DMM surgery in 12-week-old (WT C57BL/6) or 13-week-old (SEPHS1^fl/fl or SEPHS1^fl/fl; Col2a1-CreER^T2) mice, and mice (sham) without DMM after incision were used as a control. These mice were sacrificed 6 or 8 weeks after DMM or sham surgery.
As an aging-associated OA model, 24-month-old C57BL/6 male mice were used for histological analysis and 3-month-old mice were used as a control. The extent of cartilage degeneration in the knee joint was assessed by safranin-O staining and scored using the OARSI grading system.

[2] = system: SEPHS1 knockout mouse-derived chondrocytes; experiment: DNA damage (γ-H2AX foci) in SEPHS1 knockout mouse-derived chondrocytes; format: cell-based; settings: after NAC treatment
Experimental: as §1

| SMILES | increase in SA-β-gal activity [1] | weight imbalance between the operated legs and the other legs without operation (SEPHS1-iCKO mice; SEPHS1-iCKO mice, NAC 1 mg/mL in drinking water) | osteoarthritis phenotype of SEPHS1-iCKO mice (SEPHS1-iCKO mice) | DNA damage caused by SEPHS1 inhibition [2] |
| --- | --- | --- | --- | --- |
| CC(=O)N[C@@H](CS)C(=O)O [NAC, N-acetylcysteine] | reduced | alleviated | alleviated | reduced |
| O=[Se](=O)([O-])[O-].[Na+].[Na+] [selenate, sodium selenate] | – | – | did not restore | – |
